Laboratory results as given in patent publication US20110027296A1, “ANTIBODIES FOR TREATING CANCER” (UNIVERSIDAD DE BARCELONA, priority 2008, published 2011).
Bridge positions count the residues as written; N and C are the ends. Square brackets hold non-standard residues; d marks the D form. Peptide text beside a SMILES is read from it. * marks the point of attachment. NH(β-GlcNAc) = CC(=O)N[C@@H]1[C@@H](O)[C@H](O)[C@@H](CO)O[C@H]1N*; Dap = NC[C@H](N)C(=O)O

Experiments:
BCC = conditions: 1 nM antagonist; cited from earlier work
MDA-MB-231 = conditions: cytostatic and not cytotoxic effect; cited from earlier work
[1] = test system: cyclin D1, cdk4, cdk2, p21 and p27; assay: Cell cycle protein expression by Western blot; type: cell-based; conditions: 100 nM SP or antibody 1/100 dilution; indicator of proliferative rate
Procedure: FIG. 1A: For the study of the effect of SP and its inhibition on cell cycle protein expression, cells were treated with 100 nM of SP or antibody anti-SP at 1/100 dilution for 48 hours. The different pattern of protein expression was determined by Western blot. C (control), SP, αSP (anti-SP antibody). FIG. 1B: For the time-course studies cells were treated at the same concentration of antibody for the times indicated. FIG. 1C: The ratio between p27/cyclin D1 (y-axis) was determined as an indicator of the proliferative rate of the cells.
For the analysis of substance P treatment on HER2 and EGFR activation, cells were seeded on dishes and growth until 80% confluence. […]
(§1) For protein extraction cells were lysated in ice-cold radioimmunoprecipitation assay buffer (Tris-HCl 50 mM, pH 7.4; NP-40 1%; Na-deoxycholate, 0.25%, NaCl 150 mM; EDTA 1 mM; PMSF 1 mM; proteinase inhibitors; Na3VO4 1 mM and NaF 1 mM) and sonicated for 10 seconds. After centrifugation (13000 g 5 min) supernatants were quantified for protein content. […] Chemiluminiscence of the bands was detected after ECL treatment (Amersham, Piscataway, N.J.) of membranes and subsequent analysis using a Fujifilm LAS3000 imaging system. Different intensities of bands were quantified using Image Gauge software, and correct Mr was compared with pre-stained protein standards (BioRad).

EGFR = EGFR phosphorylation by Western blot in MDA-MB-468 cells; type: cell-based; conditions: MDA-MB-468, 100 nM SP, time course
Procedure: FIG. 8A: to analyze the effects of SP on EGFR activation MDA-MB-468 cell line was treated with SP at 100 nM for the indicated times (in min). The levels of phospho-EGFR and phospho-Erk were determined by Western blot analysis. FIG. 8B: The effects of the inhibition of SP in the activation of EGFR were determined as for HER2. C means control.
For the analysis of substance P treatment on HER2 and EGFR activation, cells were seeded on dishes and growth until 80% confluence. After 24 hours of fetal deprivation, cells were treated at the indicated times with 100 nM SP. Cells were wash two times with cold PBS and rapidly frozen in a −80° C. freezer until protein extraction. […]
as §1

HER2 = HER2 phosphorylation and expression by Western blot in breast cancer cell lines; type: cell-based; conditions: SP 100 nM, FIG. 5
Procedure: In FIG. 5A, to analyze the effects of SP on HER2 activation different BC cell lines were treated with SP at 100 nM for the indicated times (in min). […] In FIG. 5B, for the dose-response study MDA-MB-453 cell line was treated at different times (minutes, x-axis) with 100, 200 or 500 nM of SP, and then activation of HER2 was determined. The results are expressed as a percentage of control (y-axis), and every experiment was done in duplicate.
In FIG. 6A cells were treated with 500 nM of SP or anti-SP antibody at 1/100 dilution for 48 hours, and the levels of the different proteins determined by Western blot. C means control. […] In FIG. 6B for the time-course studies, SKBR3 and BT474 cell lines were treated with anti-SP antibody for 24, 48 and 72 hours and protein analyzed by Western blot. […]
For protein extraction cells were lysated in ice-cold radioimmunoprecipitation assay buffer (Tris-HCl 50 mM, pH 7.4; NP-40 1%; Na-deoxycholate, 0.25%, NaCl 150 mM; EDTA 1 mM; PMSF 1 mM; proteinase inhibitors; Na3VO4 1 mM and NaF 1 mM) and sonicated for 10 seconds. After centrifugation (13000 g 5 min) supernatants were quantified for protein content. […] Chemiluminiscence of the bands was detected after ECL treatment (Amersham, Piscataway, N.J.) of membranes and subsequent analysis using a Fujifilm LAS3000 imaging system. […]

Compound: CC(=O)NC1(c2ccccc2)CCN(CC[C@H](CN(C)C(=O)c2ccccc2)c2ccc(Cl)c(Cl)c2)CC1 [SR 48968]
- reduction of BCC colony formation (BCC): 60%

Compound: CC(=O)N[C@@H]1[C@@H](O)[C@H](O)[C@@H](CO)O[C@H]1NC(=O)C[C@@H]1NC(=O)[C@H](CC(C)C)NC(=O)[C@@H]2CNC(=O)C[C@H](NC1=O)C(=O)N[C@@H](Cc1c[nH]c3ccccc13)C(=O)N[C@@H](Cc1ccccc1)C(=O)N2 [MEN 11420] (cyclo(D(NH(β-GlcNAc))DWF[Dap]L); lactam 2-5)
- proliferation of tumor cell line MDA-MB-231 (MDA-MB-231): induced an inhibition of proliferation

Compound: Arg-Pro-Lys-Pro-Gln-Gln-Phe-Phe-Gly-Leu-Met [substance P]
- p27/cyclin D1 ratio [1]: caused a decrease in p27/cyclin D1 ratio
- activation of EGFR (phospho-EGFR) (EGFR): Activation of EGFR was observed at 2 min, with a second activation point at minute 6
- transactivation of HER2 (HER2): induces transactivation of HER2

Compound: Cc1ccc(CC(=O)N(C)[C@H](Cc2ccc3ccccc3c2)C(=O)N[C@@H]2CCCC[C@@H]2NC(=O)c2c[nH]c3ccccc23)cc1 [MEN 11467]
- proliferation of tumor cell line MDA-MB-231 (MDA-MB-231): induced an inhibition of proliferation
